Test results from US20040123342A1, “Monocotyledonous plant transformation” (Sugar Research & Development Corporation, priority 2000, published 2004).

Assays:
[1] = system: TS leaf whorl explants obtained from the Q187 and Q124 sugarcane cultivars; test: Cross-testing of NAA and BA concentrations for shoot regeneration from thin section leaf whorl explants; assay type: cell-based; details: for optimal concentration in culture medium for regeneration: Q187 and Q124 TS leaf whorl explants
Procedure: Murashige & Skoog (MS) nutrient formulation supplemented with 30 g/L sucrose and 7.5 g/L Difco agar was used as the basal culture medium. Basal medium was, for certain phases of culture as will be described below, enriched with the cytokinin N^6-benzylaminopurine (BA) and the auxin a-napthaleneacetic acid NAA) together with anti-oxidants such as citric acid (CA), ascorbic acid (AA), or dithiothreitol (DTT). The pH of the medium was adjusted to 5.7 before autoclaving at 11kPa for 20 minutes at 120° C. TS explants were cultured in various orientations either in tissue culture dishes (90×14 mm) with 40 ml agar- solidified medium or in a 100 mL baby food jar containing 40 ml liquid medium, or on membrane rafts with flotation kept in a polypropylene container with 40 ml liquid medium. Liquid cultures were agitated continuously on a gyratory shaker at 120 rpm. All cultures were incubated at […] under 16 hr photoperiod provided by cool, white fluorescent tubes, Subculturing was carried out at least once a week, or more frequently if medium or TS turned brown due to phenolic exudation. Cross-testing of NAA and BA concentrations was also performed using TS leaf whorl explants obtained from the […] and […] sugarcane cultivars. […] However, higher concentrations of NAA (10-40 μM) promoted a slightly […] percentage of explants producing shoots. There was no clear trend in terms of the number of shoots produced with regard to either NAA or BA concentration, Generally, 4 μM BA was preferred at any given concentration of NAA, while NAA was optimal when present in culture medium at a concentration of 10 μM.

[2] = system: leaf TS explants (sugarcane cultivar Q165); test: Effect of selection agent on shoot regeneration from bombarded leaf TS explants; assay type: cell-based; details: 100 mg/L in medium, transfer at 3 days after bombardment
Procedure: Sugarcane leaf sheath tissue taken from just above the meristem was taken from cultivar Q165 plants. Transverse thin section explants (2-3 mm) of leaf whorl were obtained from the harvested tissue. These are generally referred to as leaf thin sections.
A number of preliminary experiments were performed to detennije parametens which provided optimal regeneration from transformed tissue while providing optimal selection of transformants.
Similar results were obtained when bombarded TS explants were transferred to medium containing even low levels of selection agent.

| Molecule | optimal concentration in culture medium for regeneration [1] | regeneration efficiency, 4 μM vs 8 μM BA ([1]; cultivar Q124, any of the regeneration criteria examined) | regeneration efficiency, 4 μM vs 8 μM BA ([1]; cultivar Q187, TS leaf whorl explants) | percentage of explants producing shoots ([1]; higher concentrations of NAA (10-40 μM)) | shoot regeneration [2] |
| --- | --- | --- | --- | --- | --- |
| c1ccc(CNc2ncnc3nc[nH]c23)cc1 [BA, N^6-benzylaminopurine] | 4 µM | no clear preference | 4 μM BA was clearly more efficient than 8 μM BA | – | – |
| O=C(O)Cc1cccc2ccccc12 [NAA, a-napthaleneacetic acid] | 10 µM | – | – | slightly hither percentage of explants producing shoots | – |
| paromomycin sulphate | – | – | – | – | no shoot regeneration |
